Measurements published in PMC3745465 (PLoS ONE, 2013).
Where two headings read alike, the source gives them in different places.

How the values were obtained:
[1] = tested on: apical uptake transporter (AT); settings: MDCK-MDR1-NKI; fitted
[2] = parameters: method as in earlier work; settings: ref 18 19 20, cited from earlier work
in vitro = settings: dog
P-gp [3] = biological target: T1, P-gp (Homo sapiens, UniProt P08183); settings: MDCK-MDR1-NKI; fitted consensus value
[4] = mol drug per L lipid / mol drug per L aqueous buffer; 10 µM drug; 37°C
P-gp [5] = biological target: T1, P-gp; experiment: cell-based
[6] = tested on: basolateral digoxin uptake transporter; settings: MDCK-MDR1-NIH; 10 µM digoxin B>A, 1 hr; Trel = 0.6; listed as KCZ
[7] = tested on: basolateral digoxin uptake transporter; settings: CPT-B2; 10 µM digoxin B>A, 1 hr; Trel = 0.3
[8] = tested on: basolateral digoxin uptake transporter; settings: Caco-2; 10 µM digoxin B>A, 1 hr; Trel = 0.2
[9] = tested on: MDCK-MDR1-NKI confluent cell monolayers; settings: nicardipine up to 100 µM; data not shown
[10] = MDCK-MDR1, with GF120918 2 µM, both chambers, Passive Permeability Coefficient at steady-state PAB, A>B, +GF120918
[11] = MDCK-MDR1, with GF120918 2 µM, both chambers, Passive Permeability Coefficient at steady-state PBA, B>A, +GF120918
[12] = MDCK-MDR1, with GF120918 2 µM, both chambers, passive permeability, direction not given

T1 sequence (P08183 whole entry): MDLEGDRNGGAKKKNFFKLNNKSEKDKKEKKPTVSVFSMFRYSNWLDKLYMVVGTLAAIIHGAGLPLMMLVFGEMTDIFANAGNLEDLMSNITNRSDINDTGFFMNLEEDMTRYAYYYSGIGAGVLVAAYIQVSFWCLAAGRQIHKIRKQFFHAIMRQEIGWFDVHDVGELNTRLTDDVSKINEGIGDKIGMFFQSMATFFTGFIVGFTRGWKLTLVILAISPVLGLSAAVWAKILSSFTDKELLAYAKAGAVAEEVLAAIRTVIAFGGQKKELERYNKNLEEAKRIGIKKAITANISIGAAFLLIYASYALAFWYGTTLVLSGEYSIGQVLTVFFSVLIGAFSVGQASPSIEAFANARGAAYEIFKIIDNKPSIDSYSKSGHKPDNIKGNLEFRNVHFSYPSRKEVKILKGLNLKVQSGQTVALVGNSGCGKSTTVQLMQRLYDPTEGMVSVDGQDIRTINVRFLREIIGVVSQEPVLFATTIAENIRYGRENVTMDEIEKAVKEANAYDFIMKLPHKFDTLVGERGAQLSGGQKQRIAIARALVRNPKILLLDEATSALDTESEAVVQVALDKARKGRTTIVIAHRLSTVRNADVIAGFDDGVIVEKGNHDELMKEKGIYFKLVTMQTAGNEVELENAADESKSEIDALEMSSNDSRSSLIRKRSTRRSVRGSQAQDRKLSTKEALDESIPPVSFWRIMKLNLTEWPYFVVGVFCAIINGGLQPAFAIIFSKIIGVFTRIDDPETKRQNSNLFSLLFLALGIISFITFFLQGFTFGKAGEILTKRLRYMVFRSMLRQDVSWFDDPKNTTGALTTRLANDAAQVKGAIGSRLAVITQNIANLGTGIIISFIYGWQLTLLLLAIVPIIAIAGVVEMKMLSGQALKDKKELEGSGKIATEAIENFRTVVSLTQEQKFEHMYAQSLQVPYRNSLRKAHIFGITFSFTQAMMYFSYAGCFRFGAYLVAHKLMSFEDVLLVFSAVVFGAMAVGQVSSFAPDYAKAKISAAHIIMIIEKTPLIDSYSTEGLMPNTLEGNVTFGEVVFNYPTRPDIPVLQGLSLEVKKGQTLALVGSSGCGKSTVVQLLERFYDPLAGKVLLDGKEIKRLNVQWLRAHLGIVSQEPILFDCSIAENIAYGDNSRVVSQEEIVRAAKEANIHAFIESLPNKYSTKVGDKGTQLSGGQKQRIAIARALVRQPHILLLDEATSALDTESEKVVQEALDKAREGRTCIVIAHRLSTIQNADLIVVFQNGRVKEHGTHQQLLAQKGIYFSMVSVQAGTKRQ

In the case of `C[C@H]1O[C@@H](O[C@H]2[C@@H](O)C[C@H](O[C@H]3[C@@H](O)C[C@H](O[C@H]4CC[C@@]5(C)[C@H](CC[C@@H]6[C@@H]5C[C@@H](O)[C@]5(C)[C@@H](C7=CC(=O)OC7)CC[C@]65O)C4)O[C@@H]3C)O[C@@H]2C)C[C@H](O)[C@@H]1O` [Digoxin], the “Other Transporters kA, 1st order clearance through apical uptake transporter” value (“Other Transporters kA” below) [1] is listed as 40 ± 20 s⁻¹, the “aggregating compound or not” value ([2]; enzyme inhibition studies) is listed as “not to be aggregating compounds” and the Papp (in vitro; [10]) is listed as 4 ± 1 ×10⁻⁶ cm/s. For the same molecule, the Papp (in vitro; [11]) was 5 ± 1 ×10⁻⁶ cm/s, the Papp (in vitro; [12]) was less than 10 ×10⁻⁶ cm/s and the “Dissociation from P-gp into Apical Bilayer kr” value (P-gp [3]) was “(3±1)×10^+4 s^−1”. The “Efflux from P-gp into Apical Chamber k2” value (P-gp [3]) was 3 ± 1 s⁻¹.

In the case of `CC(C)CN(C[C@@H](O)[C@H](Cc1ccccc1)NC(=O)O[C@H]1CCOC1)S(=O)(=O)c1ccc(N)cc1` [Amprenavir], the “Other Transporters kA” value [1] is reported as 350±30 0 s^−1.

With `CN(C)C(=O)C(CCN1CCC(O)(c2ccc(Cl)cc2)CC1)(c1ccccc1)c1ccccc1` [Loperamide] the “Molar partition coefficient, Apical Outer Leaflet PC/SM/Chol (1∶1∶1) (mols), KAO” value [4] was 300±50, the “Molar partition coefficient, Basolateral Outer Leaflet PC/Chol (2∶1) (mols), KBO” value [4] was 450±50 and the “Molar partition coefficient, Plasma Cytosolic Leaflet PE/PS/Chol (1∶1∶1) (mols), KPC” value [4] was 1500±250. It also gave a Kd (P-gp [5]) of 200 µM, a Papp (in vitro; MDCK-MDR1, Passive Permeability Coefficient at steady-state PAB, A>B, +GF120918) of 32 ± 7 ×10⁻⁶ cm/s and a Papp (in vitro; MDCK-MDR1, Passive Permeability Coefficient at steady-state PBA, B>A, +GF120918) of 32 ± 9 ×10⁻⁶ cm/s. For the same molecule, the Papp (in vitro; MDCK-MDR1, passive permeability, direction not given) was roughly 32 ×10⁻⁶ cm/s, the “Dissociation from P-gp into Apical Bilayer kr” value (P-gp [3]) was “(2±1)×10^+4 s^−1” and the “Efflux from P-gp into Apical Chamber k2” value (P-gp [3]) was 0.4 ± 0.08 s⁻¹.

For `C=C[C@H]1C[N@@]2CC[C@H]1C[C@@H]2[C@@H](O)c1ccnc2ccc(OC)cc12` [Quinidine], the Papp (in vitro; [10]) was 67 ± 5 ×10⁻⁶ cm/s, the Papp (in vitro; [11]) was 67 ± 5 ×10⁻⁶ cm/s and the “Dissociation from P-gp into Apical Bilayer kr” value (P-gp [3]) was “(4±2)×10^+3 s^−1”. The “Efflux from P-gp into Apical Chamber k2” value (P-gp [3]) was 3 ± 0.4 s⁻¹.

In the case of `CC(=O)N1CCN(c2ccc(OCC3COC(Cn4ccnc4)(c4ccc(Cl)cc4Cl)O3)cc2)CC1` (stereo not drawn) [Ketoconazole], the “Other Transporters kA” value [1] is listed as 730±70 0 s^−1, the “aggregating compound or not” value ([2]; enzyme inhibition studies) is listed as “not to be aggregating compounds” and the “KQB, effective association constant of inhibitor to basolateral digoxin uptake transporter” value [6] is listed as “(4±2)×10^5 M^−1”. For the same molecule, the “KQB, effective association constant of inhibitor to basolateral digoxin uptake transporter” value [7] was “(4±2)×10^6 M^−1” and the “KQB, effective association constant of inhibitor to basolateral digoxin uptake transporter” value [8] was “(2±1)×10^6 M^−1”.

For `COC(=O)C1=C(C)NC(C)=C(C(=O)OCCN(C)Cc2ccccc2)C1c1cccc([N+](=O)[O-])c1` (stereo not drawn) [nicardipine], the “PC plateau (large inhibitor concentration plateau) of digoxin transport inhibition” value [9] is listed as “significantly above zero”, the “shape of inhibition curve of digoxin transport” value [9] is listed as “sigmoidal” and the “concentration above which large aggregates are made” value ([2]; enzyme inhibition studies) is listed as 30–40 µm. The “concentration at which colloidal aggregates form” value [2] was “about 30 µM”.

For `CC[C@]1(O)C[C@@H]2CN(CCc3c([nH]c4ccccc34)[C@@](C(=O)OC)(c3cc4c(cc3OC)N(C)[C@H]3[C@@](O)(C(=O)OC)[C@H](OC(C)=O)[C@]5(CC)C=CCN6CC[C@]43[C@@H]65)C2)C1` [Vinblastine], the “Molar partition coefficient, Apical Outer Leaflet PC/SM/Chol (1∶1∶1) (mols), KAO” value [4] was 200±3, the “Molar partition coefficient, Basolateral Outer Leaflet PC/Chol (2∶1) (mols), KBO” value [4] was 200±20 and the “Molar partition coefficient, Plasma Cytosolic Leaflet PE/PS/Chol (1∶1∶1) (mols), KPC” value [4] was 200±50. For the same molecule, the “Other Transporters kA” value [1] was 0 s⁻¹, the Papp (in vitro; [10]) was 5.5 ± 2 ×10⁻⁶ cm/s and the Papp (in vitro; [11]) was 9 ± 1 ×10⁻⁶ cm/s. For the same molecule, the Papp (in vitro; [12]) was less than 10 ×10⁻⁶ cm/s, the “Dissociation from P-gp into Apical Bilayer kr” value (P-gp [3]) was “(5±2.5)×10^+4 s^−1” and the “Efflux from P-gp into Apical Chamber k2” value (P-gp [3]) was 3 ± 0.5 s⁻¹.
